Measurements as given in patent US20100105111A1, “METHOD FOR PRODUCTION OF OPTICALLY ACTIVE AMINO ACID” (Mitsubishi Gas Chemical Company, Inc., priority 2007, published 2010).

Tests used:
[1] = system: L-amino acid amidase derived from Brevundimonas diminuta; conditions: activity for L-2-aminobutyric acid amide is 100; cited from earlier work
[2] = target: D-aminopeptidase derived from Ochrobactrum anthropi (Brucella anthropi, UniProt Q9ZBA9); conditions: activity for D-2-aminobutyric acid amide is 100; cited from earlier work
Chain of D-aminopeptidase derived from Ochrobactrum anthropi (Q9ZBA9 whole entry, looked up): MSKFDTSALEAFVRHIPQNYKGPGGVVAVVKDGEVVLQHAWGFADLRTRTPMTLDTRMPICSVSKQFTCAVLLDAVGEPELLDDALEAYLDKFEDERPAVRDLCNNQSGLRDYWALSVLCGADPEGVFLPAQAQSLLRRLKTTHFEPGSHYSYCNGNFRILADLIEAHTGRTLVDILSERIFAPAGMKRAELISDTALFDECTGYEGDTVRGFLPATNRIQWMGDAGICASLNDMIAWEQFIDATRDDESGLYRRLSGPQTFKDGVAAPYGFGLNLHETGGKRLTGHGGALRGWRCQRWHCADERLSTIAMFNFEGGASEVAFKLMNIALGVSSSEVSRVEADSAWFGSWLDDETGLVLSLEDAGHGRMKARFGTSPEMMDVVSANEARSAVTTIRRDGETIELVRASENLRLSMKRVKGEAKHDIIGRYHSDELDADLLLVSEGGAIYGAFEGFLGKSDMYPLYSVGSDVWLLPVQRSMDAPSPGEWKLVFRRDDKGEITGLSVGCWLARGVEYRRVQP

[3] = system: enzyme selectively converting the L-amino acid amide into the L-amino acid, Xanthobacter flavus; conditions: activity for L-2-aminobutyric acid amide is 100; cited from earlier work
[4] = system: nitrile hydratase derived from Rhodococcus opacus 71D; assay: Substrate specificity of the purified enzyme from Rhodococcus opacus 71D (aminonitrile to amino acid amide, HPLC); conditions: for Relative activity for each substrate: enzymatic properties, activity for 2-aminobutyronitrile is 100; for Relative activity: 30° C., 0.1 M potassium phosphate buffer pH 7.0, activity for 2-aminobutyronitrile = 100
[5] = target: T1, aminocaprolactam racemase derived from Achromobacter obae (Achromobacter obae, UniProt Q7M181); conditions: activity for 2-aminobutyric acid amide is 100; cited from earlier work
T1 sequence (Q7M181 1-436): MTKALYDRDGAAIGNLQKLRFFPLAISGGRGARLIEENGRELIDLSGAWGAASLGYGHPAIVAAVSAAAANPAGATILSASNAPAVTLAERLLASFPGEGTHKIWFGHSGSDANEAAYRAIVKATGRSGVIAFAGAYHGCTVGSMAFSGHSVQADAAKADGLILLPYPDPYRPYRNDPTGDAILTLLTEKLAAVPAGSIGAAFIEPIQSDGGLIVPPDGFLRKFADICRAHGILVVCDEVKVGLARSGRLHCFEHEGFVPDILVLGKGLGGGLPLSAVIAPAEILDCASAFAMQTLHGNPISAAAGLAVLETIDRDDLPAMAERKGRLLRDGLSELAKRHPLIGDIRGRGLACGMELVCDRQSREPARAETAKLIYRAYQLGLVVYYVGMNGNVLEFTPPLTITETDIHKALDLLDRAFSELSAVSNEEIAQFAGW

CC[C@H](C)[C@H](N)C(N)=O [L-isoleuicinamide]
Relative activity for each substrate [1]: 30.2

C[C@@H](N)C(N)=O [D-alaninamide]
Relative activity for each substrate [2]: 333

CC[C@H](N)C(N)=O [L-2-aminobutyric acid amide]
Relative activity for each substrate [3]: 100
Relative activity for each substrate [1]: 100

CCC[C@@H](N)C(N)=O [D-norvalinamide]
Relative activity for each substrate [2]: 6

CC[C@@H](N)C(N)=O [D-2-aminobutyric acid amide]
Relative activity for each substrate [2]: 100

CC(N)C#N (stereo not drawn) [Alaninonitrile]
Relative activity for each substrate [4]: 77
Relative activity ([4]; substrate 20 mM): 77.0

CCC(N)C#N (stereo not drawn) [2-aminobutyronitrile]
Relative activity for each substrate [4]: 100
Relative activity ([4]; substrate 20 mM): 100

NC(=O)[C@H](N)CO [D-serinamide]
Relative activity for each substrate [2]: 97

CC(C)C[C@H](N)C(N)=O [L-leuicinamide]
Relative activity for each substrate [5]: 48
Relative activity for each substrate [1]: 92.7

CC(C)C[C@H](N)C#N [leucinonitrile]
Relative activity for each substrate [4]: 11.8

CCCC[C@H](N)C(N)=O [L-norleuicinamide]
Relative activity for each substrate [5]: 56

C[C@@H](O)[C@H](N)C(N)=O [L-threoninamide]
Relative activity for each substrate [5]: 63
Relative activity for each substrate [1]: 14.6

C[C@H](O)[C@@H](N)C(N)=O [D-threoninamide]
Relative activity for each substrate [2]: 30

CCC(N)C(N)=O (stereo not drawn) [2-aminobutyric acid amide]
Relative activity for each substrate [5]: 100

C[C@H](N)C(N)=O [L-alaninamide]
Relative activity for each substrate [5]: 78
Relative activity for each substrate [1]: 3.4

CSCC[C@@H](N)C(N)=O [D-methioninamide]
Relative activity for each substrate [2]: 6.7

N#C[C@@H](N)Cc1ccccc1 [Phenylalaninonitrile]
Relative activity for each substrate [4]: 42.9
Relative activity ([4]; substrate concentration 10 mM): 42.9

CC(C)(C)[C@H](N)C(N)=O [L-t-leuicinamide]
Relative activity for each substrate [3]: 8.4
Relative activity for each substrate [1]: 0.2

NC(=O)[C@@H](N)CO [L-serinamide]
Relative activity for each substrate [5]: 17
Relative activity for each substrate [1]: 2.9

CCC[C@H](N)C(N)=O [L-norvalinamide]
Relative activity for each substrate [5]: 63

CCCC[C@@H](N)C(N)=O [D-norleuicinamide]
Relative activity for each substrate [2]: 2.7

NC(=O)[C@H](N)c1ccccc1 [D-phenylglycinamide]
Relative activity for each substrate [2]: 2.3

CSCC[C@H](N)C(N)=O [L-methioninamide]
Relative activity for each substrate [5]: 35
Relative activity for each substrate [1]: 85.4

N#CC(N)c1ccccc1 (stereo not drawn) [Phenylglycinonitirle]
Relative activity for each substrate [4]: 177
Relative activity ([4]; substrate 20 mM): 177

CC(C)[C@H](N)C#N [Valinonitrile]
Relative activity for each substrate [4]: 15.1
Relative activity ([4]; substrate 20 mM): 15.1

NC(=O)[C@@H](N)Cc1ccccc1 [L-phenylalaninamide]
Relative activity for each substrate [3]: 111
Relative activity for each substrate [5]: 2
Relative activity for each substrate [1]: 104

CC(C)[C@H](N)C(N)=O [L-valinamide]
Relative activity for each substrate [3]: 65
Relative activity for each substrate [1]: 17.7

CC(C)(C)C(N)C#N (stereo not drawn) [t-leuicinonitrile]
Relative activity for each substrate [4]: 1.80
Relative activity ([4]; substrate 20 mM): 1.8

NC(=O)[C@@H](N)c1ccccc1 [L-phenylglycinamide]
Relative activity for each substrate [3]: 113
